Experimental findings from PMC11811597, “Phenomics‐Based Discovery of Novel Orthosteric Choline Kinase Inhibitors” (Angewandte Chemie (International Ed. in English), 2025) are described below.

Experiment [1] relates to U2OS cells. The experiment is described as follows: Cell Painting Assay (CPA). In kind it is cell-based, human. The protocol: The described assay follows closely the method described by Bray et al.[15] Initially, 5 µL U2OS medium were added to each well of a 384-well plate (Revvity Phenoplate 384).
Subsequently, U2OS cell were seeded with a density of 1600 cells per well in 20 µL medium. The plate was incubated for 10 min at the ambient temperature, followed by an additional 4 h incubation (37 °C, 5% CO2). Compound treatment was performed with the Echo 520 acoustic dispenser (Beckman-Coulter) followed by incubation for 20 h (37 °C, 5% CO2). Subsequently, mitochondria were stained with Mito Tracker Deep Red (Thermo Fisher Scientific, Cat. No. M22426). The Mito Tracker Deep Red stock solution (1 mM) was diluted to a final concentration of 100 nM in prewarmed medium. The medium was removed from the plate leaving 10 µL residual volume and 25 µL of the Mito Tracker solution were added to each well. The plate was incubated for 30 min in darkness (37 °C, 5% CO2). To fix the cells […] of 18.5 % formaldehyde in PBS were added, resulting in a final formaldehyde concentration of […]. Subsequently, the plate was incubated for another 20 min in darkness (RT) and washed three times with 70 µL of PBS. (Agilent Washer Elx405). Cells were permeabilized by addition of 25 µL 0.1% Triton X-100 to each well, followed by 15 min incubation (RT) in darkness. The cells were washed three times with PBS leaving a final volume of 10 µL. To each well 25 µL of a staining solution were added, which contains 1% BSA, 5 µL/ml Phalloidin (Alexa594 conjugate, Thermo Fisher Scientific, A12381), 25 µg/ml Concanavalin A (Alexa488 conjugate, Thermo Fisher Scientific, Cat. No.
(Thermo Fisher Scientific, Cat. No. W11262) and 1.5 µM SYTO 14 solution (Thermo Fisher Scientific, Cat. No. S7576). The plate is incubated for 30 min (RT) in darkness and washed three times with 70 µl
PBS. After the final washing step, the PBS was not aspirated. The plates were sealed and centrifuged […]
The plates were prepared in triplicates with shifted layouts to reduce plate effects and imaged using a Micro XL High-Content Screening System (Molecular Devices) in 5 channels (DAPI: Ex350-400/ […]
The generated images were processed with the CellProfiler package (https://cellprofiler.org/, version 3.0.0) on a computing cluster of the Max Planck Society to extract 1716 cell features per microscope site. The data was then further aggregated as medians per well (9 sites -> 1 well), then over the three […]
Further analysis was performed with custom Python (https://www.python.org/) scripts using the Pandas (https://pandas.pydata.org/) and Dask (https://dask.org/) data processing libraries as well as the Scientific Python (https://scipy.org/) package (separate publication to follow).
From the total set of 1716 features, a subset of highly reproducible and robust features was determined using the procedure described by Woehrmann et al.[16] in the following way:
Two biological repeats of one plate containing reference compounds were analysed. For every feature, its full profile over each whole plate was calculated. If the profiles from the two repeats […]
set of 579 robust features out of the total of 1716 that was used for all further analyses.
The phenotypic profiles were compiled from the Z-scores of all individual cellular features, where the Z-score is a measure of how far away a data point is from a median value.
Specifically, Z-scores of test compounds were calculated relative to the Median of DMSO controls.
Thus, the Z-score of a test compound defines how many MADs (Median Absolute Deviations) the measured value is away from the Median of the controls as illustrated by the following formula:
z − score = […]
The phenotypic compound profile is then determined as the list of Z-scores of all features for one […]
(1 picture or pasted object on this page, not shown here)
In addition to the phenotypic profile, an induction value was determined for each compound as the […]
Induction [%] = number of features with abs. values > 3 […]

The subject of experiment [2] is primary human cell‐based tissue and disease models. The experiment is described as follows: BioMAP Diversity PLUS panel. Particulars: for clustering of overall BioMAP responses across all biomarkers: 12 systems, Pearson's correlation >0.7; for IgG secretion, BioMAP PBMC panel: BioMAP B cell profiling. An excerpt:
Having confirmed that UNC0638 and UNC0737 are potent bona fide CHKA inhibitors, we next turned our attention to further investigate the role of CHKA in cellular signalling. While CHKA has been studied extensively in the context of malignant disease, there has been a growing acknowledgment of its relevance in immune metabolism.[9, 10] […] We profiled UNC0638 and UNC0737 alongside the orthogonal CHKA inhibitors V‐11‐0711 and ARIAD against the BioMAP Diversity PLUS panel (Figures S7).[24] This set comprises 148 distinct biomarkers across 12 systems, including panels for systemic immune responses. […] The decrease in IgG secretion was accompanied by a reduction in stimulation‐induced B cell maturation into CD27^+IgD^− memory CD19^+ B cells (Figure 4D). […]
consecutive concentrations change in the same direction relative to vehicle controls, are outside of the significance envelope, and have at least one concentration with an effect size > 20% (|log10ratio| > 0.1). Biomarker key activities are described as modulated if these activities increase in some systems, but decrease in others. Cytotoxicity is indicated on the profile plot by a thin black arrow above the x- […]
Cytotoxicity and antiproliferative arrows only require one concentration to meet the indicated threshold for profile annotation. […]

In the case of `COc1cc2c(NC3CCN(C(C)C)CC3)nc(C3CCCCC3)nc2cc1OCCCN1CCCC1` [UNC0638], the “biosimilarity of UNC0638 and UNC0737 profiles (clustered together)” value in experiment [1] is given as more than 90%. For the same molecule, in experiment [1] (Conc 3.00 μM), the “Biol.Sim. (%)” value was 91%, the “Cell Count (%)” value was 93% and the “Ind. (%) (% of parameters with significant changes)” value was 73%. In addition, in experiment [1] (Conc 5.00 μM), the “Cell Count (%)” value is 86% and the “Ind. (%) (% of parameters with significant changes)” value came to 83%. In addition, the “Biol.Sim. (%)” value in experiment [1] (Conc 5.00 μM, morphological fingerprint similarity (no value printed for UNC0737 5 μM)) came out at 96%. Further, in experiment [2], the “clustering of overall BioMAP responses across all biomarkers” value is listed as “clustered together with the known CHKA inhibitors” and the “IgG secretion, BioMAP PBMC panel” value is “significant effects on IgG secretion”.

Turning to `COc1cc2c(N(C)C3CCN(C(C)C)CC3)nc(C3CCCCC3)nc2cc1OCCCN1CCCC1` [UNC0737], in experiment [1], the “biosimilarity of UNC0638 and UNC0737 profiles (clustered together)” value is listed as more than 90%. Also, in experiment [1] (Conc 3.00 μM), the “Biol.Sim. (%)” value is given as 94%, the “Cell Count (%)” value is reported as 86% and the “Ind. (%) (% of parameters with significant changes)” value is 83%. For the same molecule, in experiment [1] (Conc 5.00 μM), the “Cell Count (%)” value amounted to 90% and the “Ind. (%) (% of parameters with significant changes)” value amounted to 86%. In addition, in experiment [2], the “clustering of overall BioMAP responses across all biomarkers” value is on record as “clustered together with the known CHKA inhibitors” and the “IgG secretion, BioMAP PBMC panel” value was “significant effects on IgG secretion”.
